By CC50 is commonly meant the concentration at which the toxic effect on the cells reaches its halfway point. The EC50 is the midpoint of the concentration-response curve.

The structures appear in SMILES notation.

Holding throughout (format): cell-based
The nature of series [1]: Viability evaluation (MTS/PMS) of Huh7 cells transfected with Kernow-C1 p6/luc RNA. Conditions: human, highest tested concentration 50 μM, read-out: relative CC50. As for the experimental part: (§1) For viability evaluation, medium was removed and cells were subsequently incubated with MTS/PMS solution (3-(4,5-dimethylthiazol-2-yl)-5-(3-carboxymethoxyphenyl)-2-(4-sulfophenyl)-2H-tetrazolium/phenazinemethosulfate), which is metabolized to produce a brown, water-soluble product that is quantified after 1 h at 37° C. by absorbance read-out at 498 nm. Obtained values are expressed as percentage of untreated RNA-transfected control condition. The relative CC50 represents the concentration at which the metabolic activity of the cells would be reduced to 50% of the metabolic activity of untreated cells and was based on two or three experiments and derived by a nonlinear regression fit in GraphPad using a four-parameter logistic (4PL) model.

For series [2], the system named is HEV Genotype 3 replicon Kernow-C1 p6/luc. In words: Antiviral activity against HEV Genotype 3 replicon Kernow-C1 p6/luc in Huh7 cells (Gaussia luciferase). Conditions: Huh-7, 96 h, luminescence after 4 days, 4PL fit, two experiments, read-out: relative EC50. The procedure:
The antiviral activity of compounds was tested against the HEV Genotype 3 replicon Kernow-C1 p6/luc (Kernow-C1 p6: GenBank accession number JQ679013) as previously described (Debing Y, Emerson S U, Wang Y, Pan Q, Balzarini J, Dallmeier K, Neyts J. 2013. Ribavirin Inhibits In Vitro Hepatitis E Virus Replication through Depletion of Cellular GTP Pools and Is Moderately Synergistic with Alpha Interferon. Antimicrob Agents Chemother, 58:267-273). To this end, Huh7 cells were electroporated with capped in vitro transcribed Kernow-C1 p6/luc-RNA produced from Mlul-digested plasmid DNA (Shukla P, Nguyen H T, Faulk K, Mather K, Torian U, Engle R E, Emerson SU. 2012. Adaptation of a genotype 3 hepatitis E virus to efficient growth in cell culture depends on an inserted human gene segment acquired by recombination. J. Virol. 86:5697-5707), seeded in 96-well plates containing serial dilutions of the test compounds. For virus control (VC) compound was omitted. After 4 days, luminescence produced by the secreted Gaussia luciferase was quantified using the Promega Renilla luciferase kit and corrected for background with a cell control (CC, viral RNA and compound omitted). The relative 50% effective concentration (EC50) is defined as the concentration of compound that causes a 50% reduction in the Luc signal, relative to the signal range. The relative EC50 was based on two experiments and derived by a nonlinear regression fit in GraphPad using a four-parameter logistic (4PL) model.

Series [3] relates to rat HEV replicon LA-B350/luc. Nature of the series: Antiviral activity against rat HEV replicon LA-B350/luc in Huh7 cells (Gaussia luciferase). Conditions: Huh-7, 72 h, luminescence after 3 days, two or three experiments. As for the experimental part:
The antiviral activity of compounds was tested against the rat HEV replicon LA-B350/luc as described in Debing et al (Dis Model Mech 2016; 9:1203-10). To this end, Huh7 cells were electroporated with capped viral RNA produced from plasmid pLA-B350/luc, plated in 96-well plates and treated with each of compounds at selected concentrations. For virus control (VC), compound was omitted. After 3 days, luminescence produced by the secreted Gaussia luciferase was quantified using the Promega Renilla luciferase kit and corrected for background with a cell control (CC, viral RNA and compound omitted). The 50% effective concentration (EC50) is defined as the concentration of compound that causes a 50% reduction in the Luc signal compared to that of average corrected VC. The EC50 was based on two or three experiments and derived by a nonlinear regression fit in GraphPad using a two-parameter logistic model while keeping the slope variable.
(A replicon is a self-replicating genome or part of one, used to study replication in cells.)

Series [4] is described as follows: Viability evaluation (MTS/PMS) of Huh7 cells transfected with the rat HEV replicon. As to conditions: human, highest tested concentration 50 μM. The procedure: as §1, with “as […]” for “as percentage”, “The” for “The relative”, “cells (and” for “cells and”, “two” for “two or three”, “a two-parameter” for “a four-parameter”, “logistic model while keeping the slope variable).” for “logistic (4PL) model.”

Consider `CC(C)OC(=O)C(C)NP(=O)(OC[C@@]1(N=[N+]=[N-])O[C@@H](n2ccc(=O)[nH]c2=O)[C@@]2(CCS2)[C@@H]1O)Oc1ccccc1` (stereo in doubt) [Compound 1, isopropyl (2R)-2-[[[(4R,5R,6R,8R)-6-azido-8-(2,4-dioxopyrimidin-1-yl)-5-hydroxy-7-oxa-1-thiaspiro[3.4]octan-6-yl]methoxy-phenoxy-phosphoryl]amino]propanoate], for which the CC50 in series [1] and in series [4] was > 50 µM each time. The figures for the 50% effective concentration (EC50) in series [2] and in series [3] were > 50 µM and 0.74 µM, respectively.

`COC(=O)C(C)(C)NP(=O)(OC[C@H]1O[C@@H](n2ccc(=O)[nH]c2=O)[C@@]2(CCO2)[C@@H]1O)Oc1ccccc1` (stereo partly drawn) [Compound 4, methyl 2-[[[(4R,5R,7R,8R)-5-(2,4-dioxo-3,4-dihydropyrimidin-1(2H)-yl)-8-hydroxy-1,6-dioxaspiro[3.4]octan-7-yl]methoxy](phenoxy)phosphorylamino]-2-methylpropanoate]: the 50% cytotoxic concentration (CC50) in series [1] and in series [4] was > 50 µM in each case. Moreover, the half-maximal effective concentration (EC50) in series [2] turned out to be 0.53 µM; in series [3], 0.36 µM.

Turning to `CC(C)OC(=O)[C@H](C)NP(=O)(OC[C@@]1(F)O[C@@H](n2ccc(=O)[nH]c2=O)[C@@]2(CCS2)[C@@H]1O)Oc1ccccc1` (stereo partly drawn) [Compound 2, (2S)-isopropyl 2-(((((4R,5R,7S,8R)-5-(2,4-dioxo-3,4-dihydropyrimidin-1(2H)-yl)-7-fluoro-8-hydroxy-6-oxa-1-thiaspiro[3.4]octan-7-yl)methoxy)(phenoxy)phosphoryl)-amino)propanoate], the CC50 in series [1] and in series [4] was > 50 µM in each case. For the same molecule, in series [3], the 50% effective concentration (EC50) came to 5.9 µM.

Turning to `CC(C)OC(=O)[C@H](C)NP(=O)(OC[C@H]1O[C@@H](n2ccc(=O)[nH]c2=O)[C@@]2(CCS2)[C@@H]1O)Oc1ccccc1` (stereo partly drawn) [Compound 3, (2S)-isopropyl 2-(((((4R,5R,7R,8R)-5-(2,4-dioxo-3,4-dihydropyrimidin-1(2H)-yl)-8-hydroxy-6-oxa-1-thiaspiro[3.4]octan-7-yl)methoxy)(phenoxy)phosphoryl)amino)propanoate], the CC50 in series [1] and in series [4] was > 50 µM throughout. The EC50 in series [2] was > 50 µM; in series [3] it was 27 µM.

The record behind these values is US20230201236A1, “SPIROCYCLIC NUCLEOSIDE ANALOGUES FOR THE TREATMENT OF HEPATITIS E” (priority 2020, published 2023).
